In PubChem BioAssay (NCI) one finds TGI and GI50 data, which are given here for 13 molecules.

As a reminder, the TGI is the concentration giving total growth inhibition. Lower therefore signals greater sensitivity of the cells. As usually defined, the GI50 is the concentration giving 50% growth inhibition.

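Test compounds were applied to cells in 96-well plates for 48 hours at 5 doses. GI50 marks 50% less growth. TGI denotes the concentration required for complete inhibition of growth.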

Holding throughout (assay): DTP human tumour cell line panel, 48 h
The subject of test [1] is HOP-92 NSCLC.
Test [2] relates to SF-295 CNS.
Test [3] concerns OVCAR-5 ovarian.
The test system of test [4] is A549 NSCLC.
The subject of test [5] is COLO 205 colon.
Test [6] has as its system HOP-62 NSCLC.
Test [7] concerns K-562 leukemia.
Test [8] relates to MALME-3M melanoma.
The test system of test [9] is CAKI-1 renal.
Test [10] concerns MOLT-4 leukemia.

As to `Nc1nc2c(ncn2C2OC(CO)C(O)C2O)c(=O)o1` (centres undefined), the TGI in test [1], in test [2], in test [3], in test [4], in [5] and in [6] was more than 100 µM each time. The total growth inhibition concentration (TGI) in test [7], in test [8] and in test [9] was more than 100 µM each time.
For the molecule `NNC(=O)N/N=C(/CC1(O)C(=O)Nc2ccc(Br)cc21)c1ccccc1` (centres undefined), the TGI in test [1] is 63.8 µM; in test [2] it was more than 100 µM; in test [4], more than 100 µM; in [10], 44.2 µM; in test [7], 69.1 µM; in test [8], more than 100 µM. This molecule returned a TGI in test [9] of more than 100 µM.
Regarding `COc1c(CC(C)=O)c2ccccc2n1C(C)=O`, the total growth inhibition concentration (TGI) in test [1], in test [2], in [4], in test [5], in test [6] and in test [10] was more than 100 µM throughout. In addition, the TGI in test [7] and in [9] was more than 100 µM each time.
`c1ccc(-c2sc(-c3ccccc3)c3c2C(c2ccccc2)c2c(-c4ccccc4)sc(-c4ccccc4)c2C3c2ccccc2)cc1` (centres undefined): the TGI in test [1], in test [2], in test [3], in test [4], in test [5] and in test [6] was more than 100 µM throughout. The TGI in test [7], in test [8] and in [9] was more than 100 µM throughout.
On to `CS(=O)(=O)ON1C(=O)c2ccc(N)cc2C1=O`, for which the TGI in [1], in test [2], in [3], in test [4], in test [5] and in test [6] was more than 100 µM throughout. The total growth inhibition concentration (TGI) in test [10] was more than 69.3 µM; in test [7] it was more than 100 µM; in test [8] it was more than 100 µM.
Regarding `O=C(CC(=O)N1N=C(n2ccc3ccccc32)CC1c1ccccc1)Nc1ccccc1Cl` (centres undefined), the TGI in [1], in test [2], in test [4], in [5], in test [6] and in test [10] was more than 100 µM throughout. Also, the TGI in test [7] and in [8] was more than 100 µM throughout.
As for `CCCCCCCCCCCCCCCC(=O)OCC1OC(OCCCC)[C@H](O[C@@H]2OC(C)C(OC(=O)CCC)C(O)C2O)C(O)C1O` (some centres undefined), the GI50 is 17 µM in test [1]; 13.8 µM in [2]; 14.2 µM in [3]; 17.4 µM in [4]; 17.8 µM in test [5]; 16.8 µM in test [6]. Moreover, the GI50 was 16.8 µM in test [7], 16.7 µM in test [8] and 12.9 µM in test [9]. For the same molecule, the TGI amounted to 33.2 µM in test [1]; 28.2 µM in test [2]; 27.6 µM in [3]; 34 µM in test [4]; 37.2 µM in [5]; 30.8 µM in [6]. In addition, the concentration for total growth inhibition (TGI) in [7] stood at 31.6 µM; in test [8], 42.4 µM; in test [9] it was 26.2 µM.
For the molecule `O=C1C=C(Nc2cc(Cl)ccc2Cl)c2ccccc2C1=O`, the TGI in test [1] is 69.7 µM; in test [2] it was 79.3 µM; in test [3], more than 100 µM; in test [4], more than 100 µM; in [5], more than 100 µM; in [6], 72.9 µM. In addition, the total growth inhibition concentration (TGI) in test [7] was 36.8 µM; in test [8] it was 39.4 µM; in test [9], 75.5 µM.
In the case of `NC(N)=NCCCC(Nc1c2ccccc2nc2ccccc12)C(=O)O` (centres undefined), the TGI in test [1], in test [2], in test [3], in test [4], in test [5] and in test [10] was more than 100 µM in each case. Further, the concentration for total growth inhibition (TGI) in test [7], in [8] and in test [9] was more than 100 µM each time.
Consider `CC1(C)CCC2(C(=O)O)C(O)CC3(C)C(=CCC4C5(C)CCC(OC6OCC(O)C(O)C6OC6OCC(O)C(O)C6OC6OCC(O)C(OC7OC(CO)C(O)C(O)C7O)C6O)C(C)(C)C5CCC43C)C2C1` (centres undefined), for which the TGI is 82.7 µM in test [1]; 42.8 µM in [2]; more than 100 µM in test [3]; more than 100 µM in test [4]; more than 100 µM in test [5]; more than 100 µM in [6]. In addition, the concentration for total growth inhibition (TGI) is 70.6 µM in [7], 78.4 µM in test [8] and more than 100 µM in [9].
Take `CCN(CC)Cc1cc(Nc2ccnc3ccc(OC)cc23)ccc1O`: the GI50 is 2.04 µM in test [1]; 2.39 µM in test [2]; 3.95 µM in [3]; 4.37 µM in test [4]; 1.63 µM in [5]; 3.8 µM in test [6]. Also, the GI50 in test [10] was 2.98 µM; in [8], 3.85 µM; in [9] it was 1.48 µM. For the same molecule, the total growth inhibition concentration (TGI) in test [1] was determined as 7.13 µM; in [2], 7.64 µM; in [3] it was 28 µM; in test [4], 18.1 µM; in [5], 3.67 µM; in test [6] it was 18.4 µM. For the same molecule, the figures for the TGI in test [10], in [8] and in [9] were 16.8 µM, 15.7 µM and 4.1 µM, respectively.
For the molecule `COC12OCCN(C)C1=CC(=O)C1N=NCC12` (centres undefined), the concentration for total growth inhibition (TGI) in [1], in test [2], in test [4], in test [5], in test [10] and in test [7] was more than 100 µM throughout. Also, the concentration for total growth inhibition (TGI) in [9] is more than 100 µM.
In the case of `COc1cc(C2C=C(C)N=C3SC=C(C)N32)cc(OC)c1OC` (centres undefined), the GI50 in [1] is 2.08 µM; in [2], 2.07 µM; in test [3], 1.55 µM; in test [4], 2.1 µM; in test [5], 1.32 µM; in test [6], 2.08 µM. Moreover, in test [10], the GI50 is 0.445 µM. Further, the concentration for total growth inhibition (TGI) in test [1] amounted to 5.95 µM; in test [2], 6.19 µM; in test [3] it was 3.83 µM; in [4], 6.56 µM; in [5], 3.04 µM; in test [6] it was 4.53 µM. The molecule also displayed a TGI in test [10] of more than 100 µM.
